According to ChEMBL document CHEMBL4513160, “CO-ADD screening of MMV (CH) - Small Polar Library”:
In brackets after ≈: the same amount, converted by molar mass.

Legend:
[1] = test system: Pseudomonas aeruginosa; assay: Antibacterial activity against Pseudomonas aeruginosa PAO397 [PAO1 d(mexAB-oprM) d(mexCD-oprJ) d(mexEF-oprN) d(mexJKL) d(mexXY) d(opmH)] (CO-ADD:GN_211); MIC in CAMBH media using NBS plates, by OD(600); assay type: functional; conditions: ASSAY_TEST Inhibition of Bacterial Growth, detection method Absorption (OD600), MEDIA CAMHB, plate type 384well, CORNING #3640, time 18 hr
[2] = test system: Pseudomonas aeruginosa; assay: microbe, parasite or virus in culture; conditions: ATCC 27853, 18 h, ASSAY_TEST Inhibition of Bacterial Growth, detection method Absorption (OD600), MEDIA CAMHB, plate type 384well, NBS, CORNING #3640
Description: Antibacterial activity against Pseudomonas aeruginosa ATCC 27853 (CO-ADD:GN_042); MIC in CAMBH media using NBS plates, by OD(600)

[3] = test system: Acinetobacter baumannii; assay: microbe, parasite or virus in culture; conditions: ATCC 19606, 18 h, ASSAY_TEST Inhibition of Bacterial Growth, detection method Absorption (OD600), MEDIA CAMHB, plate type 384well, NBS, CORNING #3640
Description: Antibacterial activity against Acinetobacter baumannii ATCC 19606 (CO-ADD:GN_034); MIC in CAMBH media using NBS plates, by OD600

SMILES | MIC [1] [µM] | MIC [2] [µM] | MIC [3] [µM]
NCC(=O)N1CCCC(CCc2ccc(F)cc2)C1 (configuration not stated) | > 300 | > 300 | > 300
COc1ccc2c(c1)CCCC(=O)N2 | > 300 | > 300 | > 300
O=C1C=CC(=O)N1Cc1ccc(Cl)cc1 | > 300 | > 300 | > 300
c1ccc2c(N3CCNCC3)cncc2c1 | > 300 | > 300 | > 300
NCCC(=O)N1CCCC(CCc2ccc(F)cc2)C1 (configuration not stated) | > 300 | > 300 | > 300
COc1ccc(NC(=O)c2ccc(S(N)(=O)=O)o2)cc1 | 200 (≈ 59.3 µg/mL) | > 300 | > 300
COc1ccc(CNCCCSc2nnnn2C)cc1 | > 300 | > 300 | > 300
Nc1cnccc1N1CCCCC1 | > 300 | > 300 | > 300
OCCNCCNCc1ccc(-c2ccccc2F)o1 | > 300 | > 300 | > 300
c1cc(CNc2ncnc3[nH]ncc23)c2c(c1)OCO2 | > 300 | > 300 | > 300
CN(C)C(=O)CCNc1ccnc2ccc(Cl)cc12 | > 300 | > 300 | > 300
CCn1cc(C(=O)Nc2ccc(Br)cn2)cn1 | > 300 | > 300 | > 300
NCC(O)c1ccc(-c2ccccc2)cc1 (configuration not stated) | > 300 | > 300 | > 300
CNC(=O)C1CCN(C(=O)Nc2ccc(C)c(Cl)c2)C1 (configuration not stated) | 90 (≈ 26.6 µg/mL) | > 300 | > 300
CCCSc1ccc(NC(=O)NCCN)cc1 | > 300 | > 300 | > 300
OCC(O)CNc1ccnc2ccc(Br)cc12 (configuration not stated) | > 300 | > 300 | > 300
NCCNc1ccc2ccccc2n1 | > 300 | > 300 | > 300
Cc1cc(C)c(C#N)c(N2C[C@H](C3CC3)[C@@H](N)C2)n1 | > 300 | > 300 | > 300
NCC(=O)N(Cc1cccs1)Cc1cccs1 | > 300 | > 300 | > 300
Cc1cccc(C(=O)Nc2ncc(C)s2)n1 | > 300 | > 300 | > 300
CN(C)CCC(=O)c1ccc(F)cc1 | > 300 | > 300 | > 300
CNCCC1CCN(c2ccncc2)CC1 | > 300 | > 300 | > 300
COc1ncccc1-c1csc(NCCSC)n1 | > 300 | > 300 | > 300
COc1ccc(C2NC(=O)c3cccnc3N2)cc1F (configuration not stated) | > 300 | > 300 | > 300
C[C@@H](N)C(=O)NCc1cc2cc(Cl)ccc2[nH]1 | 300 (≈ 75.5 µg/mL) | > 300 | > 300

SMILES | MIC [1] [µM] | MIC [2] [µM] | MIC [3] [µM]
CCCc1cc(C(=O)NCCc2nc(C)c[nH]2)[nH]n1 | 300 (≈ 78.4 µg/mL) | > 300 | > 300
CCCn1cnnc1CNC | > 300 | > 300 | > 300
CCCOc1ccc(NS(=O)(=O)N(C)C)cc1Cl | > 300 | > 300 | > 300
Cc1cccc(NC(C)c2ccc(S(N)(=O)=O)cc2)n1 (configuration not stated) | > 300 | > 300 | > 300
NCc1cnn(-c2ccc(Cl)cc2)c1 | > 300 | > 300 | > 300
NCC1CCOc2ccccc21 (configuration not stated) | > 300 | > 300 | > 300
O=C(c1cnsn1)N1CCN(c2ccccn2)CC1 | > 300 | > 300 | > 300
Cc1ncc(C)c(N)n1 | > 300 | 300 (≈ 36.9 µg/mL) | > 300
CNC(CO)c1cccc(Cl)c1Cl (configuration not stated) | > 300 | > 300 | > 300
Cn1ccnc1-c1noc(NC(=O)c2ccccn2)n1 | > 300 | > 300 | > 300
OCCNCCNCc1ccc(-c2ccccc2Cl)o1 | > 300 | > 300 | > 300
CC(N)c1nc(-c2ccc(Br)cc2)c[nH]1 (configuration not stated) | > 300 | > 300 | > 300
O=C(NCc1cccs1)c1cnsn1 | > 300 | > 300 | > 300
NCCc1cccc2cc[nH]c12 | > 300 | > 300 | > 300
CS(=O)(=O)N1CCSc2ccc(Cl)cc21 | > 300 | > 300 | > 300
CC(C)(N)CN1CCN(c2cccc(Cl)c2)CC1 | > 300 | > 300 | > 300
CCN1CCN(c2cc(C#N)ccn2)CC1 | > 300 | > 300 | > 300
Cc1cccc(OCC(O)Cn2ccnc2C)c1 (configuration not stated) | > 300 | > 300 | > 300
Cc1ccncc1NC1CS(=O)(=O)c2ccccc21 (configuration not stated) | > 300 | > 300 | > 300
Cc1cc(NCCO)nc2ccccc12 | > 300 | > 300 | > 300
O=C(Nc1ccnc(CO)c1)c1ccc(F)cc1I | > 300 | > 300 | > 300
CNCC(=O)NC(C)c1nc(-c2ccc(Br)cc2)no1 (configuration not stated) | > 300 | > 300 | > 300
CC(C)c1ccoc1C(=O)N(C)c1cc(C#N)ccn1 | > 300 | > 300 | > 300
Fc1cccnc1OC1CCNCC1 | > 300 | > 300 | > 300
OCCNCCNCc1ccc(-c2cccc(Cl)c2)o1 | > 300 | > 300 | > 300

SMILES | MIC [1] [µM] | MIC [2] [µM] | MIC [3] [µM]
NC(=O)CSc1nc(-c2ccc(Br)cc2)c[nH]1 | 300 (≈ 93.7 µg/mL) | > 300 | > 300
OC[C@@H]1CCCN1Cc1ccc(F)c2cccnc12 | > 300 | > 300 | > 300
NCC(=O)N1CCCC(CCc2ccc(F)cc2F)C1 (configuration not stated) | > 300 | > 300 | > 300
Nc1nc(-c2ccc3c(c2)CCCC(=O)N3)cs1 | > 300 | > 300 | > 300
Nc1ccnc(-c2ccccc2)c1 | > 300 | > 300 | > 300
CCCOc1ccccc1C(=O)NC1CCNC1 (configuration not stated) | 25 (≈ 6.21 µg/mL) | > 300 | > 300
CC(Nc1ccc(C#N)cn1)c1ccc2c(c1)OCO2 (configuration not stated) | > 300 | > 300 | > 300
O=C(NCCO)Nc1cc(F)ccc1N1CCCCC1 | 300 (≈ 84.4 µg/mL) | > 300 | > 300
COc1cc(F)cc(NCC(=O)NCc2ccco2)c1 | > 300 | > 300 | > 300
CCNCCOc1cccc(OCC)c1 | > 300 | > 300 | > 300
CN(C)C(=O)Nc1cc(F)cc(F)c1 | > 300 | > 300 | > 300
CSC(C)(C)COC(=O)c1ccc(-n2ccnc2)nc1 | > 300 | > 300 | > 300
O=S1(=O)CCC(CNc2ccnc3ccc(Cl)cc23)C1 (configuration not stated) | > 300 | > 300 | > 300
CNC(=O)CCCNC(=O)Nc1nc2ccccc2s1 | > 300 | > 300 | > 300
CC(C)CCC(=O)N[C@@H]1CN(C)C[C@H]1CN(C)C | > 300 | > 300 | > 300
N#Cc1cc(N2CCC[C@@H]2CO)nc2ccccc12 | > 300 | > 300 | > 300
NCC1CCN(CCc2ccccc2)C1 (configuration not stated) | > 300 | > 300 | > 300
Cc1c[nH]c2ccccc2c1=N | > 300 | > 300 | > 300
CCc1cccc(S(=O)(=O)N2CCC(NC)C2)c1 (configuration not stated) | > 300 | > 300 | > 300
CC(Sc1n[nH]c(-c2ccccn2)n1)C(=O)N(C)C (configuration not stated) | > 300 | > 300 | > 300
c1cn2c(n1)COCC2 | > 300 | > 300 | > 300
CC(=O)c1ccc(NC(=O)CCc2cccs2)nc1 | > 300 | > 300 | > 300
Cc1ccc(OC(C)CN)cc1 (configuration not stated) | > 300 | > 300 | > 300
CCOc1nnc(CN2CCC(C(N)=O)CC2)s1 | > 300 | > 300 | > 300
